Publication PMC10216478, “Development of a Non-Peptide Angiotensin II Type 1 Receptor Ligand by Structural Modification of Olmesartan as a Biased Agonist” (Biomedicines, 2023)

Biological target: T1, AT1 Q257A receptor (Rattus norvegicus, UniProt P25095, Q257A)
T1 construct: expressed in transfected cells; host or cells: COS7
T1 sequence (P25095 1-359 Q257A): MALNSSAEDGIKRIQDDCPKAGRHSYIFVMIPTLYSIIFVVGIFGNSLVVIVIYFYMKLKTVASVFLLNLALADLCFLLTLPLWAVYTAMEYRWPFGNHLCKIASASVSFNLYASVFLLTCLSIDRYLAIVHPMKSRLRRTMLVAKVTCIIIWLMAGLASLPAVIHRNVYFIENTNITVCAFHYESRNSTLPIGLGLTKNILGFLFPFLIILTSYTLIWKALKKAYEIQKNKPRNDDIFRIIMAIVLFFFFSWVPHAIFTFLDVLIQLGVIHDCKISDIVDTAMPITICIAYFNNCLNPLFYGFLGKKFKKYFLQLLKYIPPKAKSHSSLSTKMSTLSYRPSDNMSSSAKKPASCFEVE
Assay: Immunoblotting of ERK 1/2 activation in COS7 cells overexpressing AT1-Q257A receptor
Format: cell-based
Details: 1 µM ligands or 0.1 µM Ang II, 10 min, n = 5, vs. (-)
Method: The synthetic rat AT1 receptor gene, which was cloned in the shuttle expression vector pMT-2, was used for expression and mutagenesis, as described previously. […] In the experiments, cells were grown without a cell-growth supplement. To express the AT1 receptor protein, 10 µg of purified plasmid DNA per 10^7 cells was used in the transfection. Wild-type and mutated AT1 receptors were transiently transfected into cells using Lipofectamine 2000 liposomal reagent (Roche Applied Science, Penzberg, Germany). Cells were plated and grown and were 70–90% confluent at the time of transfection. We incubated plasmid DNA (10 µg)–lipid (10 µL) complexes for 5 min at room temperature and added and incubated the complexes with cells for 24 h. We then analyzed the parameters in transfected cells. […] Transfected cells that had been cultured for 48–72 h were harvested. […]
In in vitro studies, ERK 1/2 activation by 1 µM ligands or 0.1 µM Ang II incubated for 10 min was measured using COS7 cells that overexpressed AT1 wild-type and mutant receptors. ERK activity was measured in cells maintained for 18 h in DMEM containing 0.1% serum. […] We homogenized the cells in lysis buffer plus protease inhibitors and determined the protein concentration using the bicinchoninic acid method. […] The signal was independently quantified by digital image analysis (ImageJ, National Institutes of Health, Bethesda, MD, USA).

ERK1/2 activation: did not change ERK1/2 activation
SMILES: CCCc1nc(C(C)(C)O)c(C(=O)O)n1Cc1ccc(-c2ccccc2-c2nnn[nH]2)cc1 [Olmesartan, olmesartan]
